According to US20110104289A1, “METHOD AND PHARMACEUTICAL COMPOSITION FOR OBTAINING THE PLASMATIC PROGESTERONE LEVELS REQUIRED FOR DIFFERENT THERAPEUTIC INDICATIONS” (POSI VISIONARY SOLUTIONS LLP, priority 2008, published 2011):

Assay: Progesterone plasma levels after intramuscular-type injection of injectable aqueous suspension of progesterone particles
Format: in vivo, post-menopausal women
Conditions: female, human, humans, across the dosing schemes (100-300 mg, single or repeated injection), read-out: maximum plasma concentrations (Cmax)
Procedure: 12 post-menopausal women were administered with a 100 mg single injection of progesterone spherical microparticles, in the form of an injectable aqueous suspension. Obtained plasma levels are illustrated in FIG. 1, wherein progesterone plasma concentrations are observed to be maintained up to 7 days in suitable levels for several therapies requiring said progesterone concentrations. 12 post-menopausal women were administered with a single 200 mg injection of progesterone spherical microparticles in the form of an injectable aqueous suspension. Obtained plasma levels are illustrated in FIG. 2, wherein progesterone plasma concentrations are observed to be maintained up to 7 days in suitable levels for several therapies requiring said progesterone concentrations and described in page 2. Four 200 mg repeated injections of progesterone spherical microparticles were administered in the form of an injectable aqueous suspension to 15 post-menopausal women. Obtained plasma levels are illustrated in FIG. 3, wherein progesterone plasma concentrations are observed to be maintained up to 7 days in suitable levels for several therapies requiring said progesterone concentrations and described in page 2. Four 300 mg repeated injections of progesterone spherical microparticles were administered in the form of an injectable aqueous suspension to 13 post-menopausal women. […]

Structure (SMILES): CC(=O)[C@H]1CC[C@H]2[C@@H]3CCC4=CC(=O)CC[C@]4(C)[C@H]3CC[C@]12C [progesterone]
- Cmax: 12 to 42 ng/mL
